Biological target: HLA-C*14:02 (Homo sapiens, UniProt P10321, A176E/A330V/A35S/A97T/C350S/D114A/D33S/L171W/L180R/L218V/M285V/M309V/M331V/P208H/Q277E/Q291P/R121W/R243W/S123F/S297R/S48A/T329A/T363A/V319A)
Assay: LC-MS/MS identification of HLA-bound HIV-1 peptides from NL4-3-infected .221-C1402 cells
Type: binding
Set-up: key: ●: Closed circles indicate the peptide which was identified in HLA-C*1402 or/and -C*1403 expressing cells
Settings: HIV-1 NL4-3-infected .221-C1402 cells, W6/32 immunoprecipitation, two independent replicate experiments
Description: 721.221 cells expressing CD4 and HLA-C*14:02 (.221-C1402) or HLA-C*14:03 (.221-C1403) were infected with the laboratory-adapted NL4-3 HIV-1 strain. HLA-peptide complexes were isolated from cell lysates by immunoprecipitation with the anti-HLA class I antibody W6/32; then, peptides were eluted, fractionated by high-performance liquid chromatography (HPLC), and finally analyzed by LC-MS/MS. Two independent replicate experiments were performed, in which a total of 7,970 and 8,447 unique 8- to 13-mer peptide sequences were identified from .221-C1402 and .221-C1403 cells, respectively (Fig. 1A). Of these peptides, 6,163 were identified in both the C*14:02- and C*14:03-bound peptide data sets, while other peptides were detected in the acid-eluted fraction from only a single allele. […] These motifs are consistent with the HLA-C*1402/03 peptide motifs previously estimated using reported epitopes ([29]).
.221-C1402 and .221-C1403 cells were infected with HIV-1 NL4-3 in a low volume of RPMI 1640 medium (Thermo Fisher) containing 10% fetal bovine serum (FBS), 2 mM L-glutamine, 100 U/mL penicillin, 100 μg/mL streptomycin, and 10 mM HEPES (R10). Fifty microliters of NL4-3 stock virus (Reverse transcriptase activity (RT) value = 4 × 10^2 ng/mL) was added to 8 × 10^6 .221-C1402 cells or .221-C1403, and the cells were then incubated for 1.5 h at 37°C, after which 20 mL of R10 was added and the cells were cultured overnight. At day 1 postinfection, a further 20 mL R10 was added, and cells were split (1:2) on day 2. On day 3 postinfection, the proportion of cells infected with HIV-1 was determined by intracellular p24 staining, as previously described ([46]). Infected flasks were then harvested for immunoprecipitation of HLA-peptide complexes.
.221-C1402 cells or .221-C1403 cells infected with NL4-3 (1.5 × 10^8 to 2 × 10^8 cells) were harvested, washed in phosphate-buffered saline (PBS), and lysed in 5 mL of lysis buffer (1% IGEPAL 630, 300 mM NaCl, 100 mM Tris [pH 8.0], plus protease inhibitors) at 4°C for 45 min. Two centrifugation steps (2,000 × g for 10 min followed by 20,000 × g for 30 min at 4°C) were next employed to clear the lysates of cell debris prior to overnight capture of HLA-peptide complexes on W6/32-coated protein A‐Sepharose beads. W6/32-bound HLA-peptide complexes were sequentially washed with 10 to 20 mL of wash buffer 1 (0.005% IGEPAL, 50 mM Tris [pH 8.0], 150 mM NaCl, 5 mM EDTA), wash buffer 2 (50 mM Tris [pH 8.0], 150 mM NaCl), wash buffer 3 (50 mM Tris [pH 8.0], 400 mM NaCl), and finally wash buffer 4 (50 mM Tris [pH 8.0]) under gravity flow in Econo-Column glass chromatography columns (Bio-Rad). Peptide-HLA complexes were eluted from the beads with 5 mL of 10% acetic acid and, after drying under vacuum, were loaded onto a 4.6- by 50-mm ProSwift RP-1S column (Thermo Fisher Scientific) and eluted from an Ultimate 3000 HPLC system (Thermo Scientific) using a 500-μL/min flow rate over 10 min from 2% to 34% buffer B (0.1% trifluoroacetic acid [TFA] in acetonitrile) in buffer A (0.1% TFA in water). Alternate fractions were pooled to give two final peptide fractions that were dried for LC-MS/MS analysis.
Each HPLC-eluted sample was resuspended in 20 μL loading buffer, and 9 μL of it was injected onto a 3-μm-particle-size 0.075-mm by 150-mm Acclaim PepMap RSLC C18 column and further loaded onto a 2-μm-particle-size, 75-μm by 50-cm Acclaim PepMap RSLC C18 column using an Ultimate 3000 nUPLC system (Thermo Scientific). A linear gradient of 3 to 25% buffer B (0.1% formic acid, 5% dimethyl sulfoxide [DMSO] in acetonitrile) in buffer A (0.1% formic acid, 5% DMSO in water) was applied over 1 h to elute peptides from the column (flow rate of […]). Peptides were introduced, using an Easy-Spray source at 2,000 V at 40°C, into a Fusion Lumos mass spectrometer (Thermo Scientific). The ion transfer tube temperature was set to 305°C. […]

Sequence | C1402: peptide identified by LC-MS/MS in HLA-I eluate
AFHHVAREL [Nef AL9] | ●
AFSPEVIPM [Gag AM9] | ●
FLGAAGSTM [Env FM9, HIV-1 NL4-3 Env 522–530 peptide …] | ●
IYHTQGYF [Nef IF8] | ●
KYHSNWRAM [Pol KM9] | ●
LYNTIAVLY [Gag LY9] | ●
RFDSRLAF [Nef RF8, HIV-1 NL4-3 Nef 184–191 peptide RFDSRLAF] | ●
VYYDPSKDL [Pol VYL9, HIV-1 NL4-3 Pol 472–480 peptide …] | ●
YFPDWQNYT [Nef YT9] | ●

Reference: paper PMC9131871, “Impact of Micropolymorphism Outside the Peptide Binding Groove in the Clinically Relevant Allele HLA-C*14 on T Cell Responses in HIV-1 Infection” (Journal of Virology, 2022)
